Patent publication US20220400686A1, “COMPOSITIONS AND METHODS FOR ON-DEMAND RELEASE OF ANTIMICROBIAL AGENTS” (priority 2019, published 2022)

Tests used:
S. aureus = assay: Specific and nonspecific cleavage in human serum with/without MN, read out by S. aureus culture in the supernatant; format: cell-based; settings: PEGDMA-Oligo-Gentamicin hydrogel incubated 2 h in human serum with/without MN
Description: The data also support faster oligo cleavage by MN than by other nucleases present in the human serum.
Briefly, the PEGDMA-Oligo-Gentamicin hydrogel (50 μL, 8 mm in diameter, n=3) was immersed in 0.25 mL of human serum with or without MN (0.1 U/mL) and incubated at 37° C. for 2 h. The hydrogel was then removed while 0.25 mL of LB media containing 250 CFU S. aureus was added. The culture of S. aureus was incubated for 24 h at 37° C. with shaking.

[1] = biological target: T1, micrococcal nuclease (MN) (Staphylococcus aureus, UniProt P00644); assay: Enzymatic oligo digestion by micrococcal nuclease monitored by GPC; format: biochemical, S. aureus
T1 construct: purchased Worthington Biochemical Corporation; host or cells: S. aureus strain ATCC #27735
Source text: The cleavage of the oligo probe (synthesized and purified by Integrated DNA Technologies) by MN (source: S. aureus strain ATCC #27735; Worthington Biochemical Corporation) was first validated prior to its conjugation with vancomycin or PEGDMA hydrogel.
The digestion of the methacrylated oligo by micrococcal nuclease (MN, 0.1-1.0 U/μL) was monitored by aqueous gel permeation chromatography (GPC) on a Varian ProStar HPLC system with two PL Aquagel-OH columns (Agilent Technologies) and a UV detector. The eluent was aqueous PBS (10 mM, pH 7.4) and the flow rate was 1.0 mL/min. Detection of the oligo probe and its fragments upon digestion was enabled by UV absorbance at 260 nm. Extinction coefficient of 2′-O-methyl-modified nucleotides was assumed to be the same as that of RNA. All measurements were performed in triplicates.

Substance	total CFU count of S. aureus after 24-h culture in supernatant (S. aureus)	cleavage of the oligo by MN (fragments by GPC, UV 260 nm) ([1]; MN 0.1 U/μL, PBS pH 7.4 10 mM, physiological concentration of calcium ions)	cleavage of the oligo by MN ([1]; absence of calcium ions)
/5Carboxyl/*mC*mG*TT*mC*mG*/3Acryd/ [6 PS]	increased accordingly		
/5Carboxyl/*mC*mGTTmC*mG*/3Acryd/ [4 PS]	increased accordingly		
/5Carboxyl/mCmGTTmCmG/3Acryd/ [0 PS oligo]	least or no CFU count	two fragments	very little cleavage
